Results reported in patent US20240228506A1, “RIPK1 INHIBITORS AND METHODS OF USE” (Merck Sharp & Dohme LLC, priority 2021, published 2024).
pIC50: −log10 of the molar value.

Molecular target: T1, GST-RIPK1 (recombinant GST-RIPK1 kinase domain (residues 1-327)) (Homo sapiens, UniProt Q13546)
T1 construct: recombinant GST-RIPK1 kinase domain (residues 1-327) enzyme; made in house; host or cells: baculovirus-transfected Sf21 insect cells
T1 sequence (Q13546 1-327): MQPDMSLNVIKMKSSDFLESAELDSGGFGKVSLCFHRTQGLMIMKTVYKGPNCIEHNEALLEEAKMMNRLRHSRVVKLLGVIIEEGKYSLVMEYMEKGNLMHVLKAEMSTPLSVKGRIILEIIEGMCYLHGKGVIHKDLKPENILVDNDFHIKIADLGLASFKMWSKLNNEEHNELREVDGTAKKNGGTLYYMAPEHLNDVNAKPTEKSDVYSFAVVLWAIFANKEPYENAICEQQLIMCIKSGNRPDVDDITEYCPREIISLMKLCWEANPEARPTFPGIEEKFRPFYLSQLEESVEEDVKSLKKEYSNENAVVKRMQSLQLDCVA
Experiment: RIPK1-ADP-Glo enzymatic assay
Assay type: biochemical
Conditions: 25 nM GST-RIPK1, 300 μM ATP, 3 μM dephosphorylated-MBP; 30 minutes pre-incubation, 150 minutes reaction; ten-point titration
Procedure: The enzymatic activity of RIPK1 is measured using an assay derived from ADP-Glo kit (Promega™), which provides a luminescent-based ADP detection system. Specifically, the ADP generated by RIPK1 kinase is proportionally detected as luminescent signals in a homogenous fashion. In this context, the assessment of the inhibitory effect of small molecules (EC50) is measured by the effectiveness of the compounds to inhibit the ATP to ADP conversion by RIPK1. In this assay, the potency (EC50) of each compound was determined from a ten-point (1:3 serial dilution; top compound concentration of 100000 nM) titration curve using the following outlined procedure. To each well of a white ProxiPlus 384 well-plate, […] of compound (1% DMSO in final assay volume of 3 μL) was dispensed, followed by the addition of 2 μL of 1× assay buffer (25 mM Hepes 7.3, 20 mM MgCl2, 50 mM NaCl, 1 mM DTT, 0.005% Tween20, and 0.02% BSA) containing 37.5 nM of GST-RIPK1 (recombinant GST-RIPK1 kinase domain (residues 1-327) enzyme produced from baculovirus-transfected Sf21 cells: MW=62 kDa). Plates were placed in an ambient temperature humidified chamber for a 30 minutes pre-incubation with compound. Subsequently, each reaction was initiated by the addition of 1 μL 1×assay buffer containing 900 μM ATP and […]. The final reaction in each well of 3 μL consists of 25 nM of GST-RIPK1, 300 μM ATP, and 3 μM dephosphorylated-MBP. Kinase reactions were allowed to proceed for 150 minutes prior to adding ADP-Glo reagents per Promega's outlined kit protocol. Dose-response curves were generated by plotting percent effect (% product conversion; Y-axis) vs. Log10 compound concentrations (X-axis). EC50 values were calculated using a non-linear regression, four-parameters sigmoidal dose-response model.

Compound	pIC50
N#Cc1cncc2c1O[C@H]1C[C@@H]2N(C(=O)C23CCCC2C3(F)F)C1 (single isomer, unassigned) [Compound 1-87, (2S,5S)-4-((1R,5S or 1S,5R)-6,6-difluorobicyclo[3.1.0]hexane-1-carbonyl)-2,3,4,5-tetrahydro-2,5-methanopyrido[3,4-f][1,4]oxazepine-9-carbonitrile]	7.17
CC(C(=O)N1C[C@@H]2C[C@H]1c1cncc(C#N)c1O2)(C(F)F)C1CC1 (single isomer, unassigned) [Compound 1-88, (2S,5S)-4-(2-(R or S)-cyclopropyl-3,3-difluoro-2-methylpropanoyl)-2,3,4,5-tetrahydro-2,5-methanopyrido[3,4-f][1,4]oxazepine-9-carbonitrile]	7.02
CC(C(=O)N1C[C@@H]2C[C@H]1c1cncc(C#N)c1O2)(C(F)F)C1CC1 (single isomer, unassigned) [Compound 1-89, (2S,5S)-4-(2-(R or S)-cyclopropyl-3,3-difluoro-2-methylpropanoyl)-2,3,4,5-tetrahydro-2,5-methanopyrido[3,4-f][1,4]oxazepine-9-carbonitrile]	7.37
N#Cc1cncc2c1O[C@H]1C[C@@H]2N(C(=O)C2(F)CC(Oc3ccc(F)cc3F)C2)C1 (single isomer, unassigned) [Compound 1-106, (2S,5S)-4-(3-(2,4-difluorophenoxy)-1-(R or S)-fluorocyclobutane-1-carbonyl)-2,3,4,5-tetrahydro-2,5-methanopyrido[3,4-f][1,4]oxazepine-9-carbonitrile]	7.22
N#Cc1cncc2c1O[C@H]1C[C@@H]2N(C(=O)C2(F)CC(Oc3ccc(F)cc3F)C2)C1 (single isomer, unassigned) [Compound 1-107, (2S,5S)-4-(3-(2,4-difluorophenoxy)-1-(R or S)-fluorocyclobutane-1-carbonyl)-2,3,4,5-tetrahydro-2,5-methanopyrido[3,4-f][1,4]oxazepine-9-carbonitrile]	7.64
CCC(C)(C#N)C(=O)N1C[C@@H]2C[C@H]1c1cncc(C#N)c1O2 (single isomer, unassigned) [Compound 1-112, (2S,5S)-4-(2-(R or S)-cyano-2-methylbutanoyl)-2,3,4,5-tetrahydro-2,5-methanopyrido[3,4-f][1,4]oxazepine-9-carbonitrile]	6.60
CCC(C)(C#N)C(=O)N1C[C@@H]2C[C@H]1c1cncc(C#N)c1O2 (single isomer, unassigned) [Compound 1-113, (2S,5S)-4-(2-(R or S)-cyano-2-methylbutanoyl)-2,3,4,5-tetrahydro-2,5-methanopyrido[3,4-f][1,4]oxazepine-9-carbonitrile]	6.81
O=C(N1C[C@@H]2C[C@H]1c1cncc(F)c1O2)C12CCC(CC1(F)F)C2 (single isomer, unassigned) [Compound 2-18, (2,2-(S or R)-difluorobicyclo[2.2.1]heptan-1-yl)((28,5S)-9-fluoro-2,3-dihydro-2,5-methanopyrido[3,4-f][1,4]oxazepin-4(5H)-yl)methanone]	7.05
O=C(N1C[C@@H]2C[C@H]1c1cncc(F)c1O2)C12CCC(CC1(F)F)C2 (single isomer, unassigned) [Compound 2-19, (2,2-(S or R)-difluorobicyclo[2.2.1]heptan-1-yl)((2S,5S)-9-fluoro-2,3-dihydro-2,5-methanopyrido[3,4-f][1,4]oxazepin-4(5H)-yl)methanone]	6.34
CC(C)(C(=O)N1C[C@@H]2C[C@H]1c1cncc(C#N)c1O2)C(F)F [Compound 1-1, (2S,5S)-4-(3,3-difluoro-2,2-dimethylpropanoyl)-2,3,4,5-tetrahydro-2,5-methanopyrido[3,4-f][1,4]oxazepine-9-carbonitrile]	7.49
N#Cc1cncc2c1O[C@H]1C[C@@H]2N(C(=O)C23CCC(C(F)(F)F)(CC2)C3)C1 [Compound 1-2, (2S,5S)-4-[4-(trifluoromethyl)bicyclo[2.2.1]heptane-1-carbonyl]-2,3,4,5-tetrahydro-2,5-methanopyrido[3,4-f][1,4]oxazepine-9-carbonitrile]	8.15
CC(C)(C)C(=O)N1C[C@@H]2C[C@H]1c1cncc(C#N)c1O2 [Compound 1-3, (2S,5S)-4-(2,2-dimethylpropanoyl)-2,3,4,5-tetrahydro-2,5-methanopyrido[3,4-f][1,4]oxazepine-9-carbonitrile]	7.30
CCC(C)(C)C(=O)N1C[C@@H]2C[C@H]1c1cncc(C#N)c1O2 [Compound 1-4, (2S,5S)-4-(2,2-dimethylbutanoyl)-2,3,4,5-tetrahydro-2,5-methanopyrido[3,4-f][1,4]oxazepine-9-carbonitrile]	7.89
CC1(C(=O)N2C[C@@H]3C[C@H]2c2cncc(C#N)c2O3)CCCC1 [Compound 1-5, (2S,5S)-4-(1-methylcyclopentane-1-carbonyl)-2,3,4,5-tetrahydro-2,5-methanopyrido[3,4-f][1,4]oxazepine-9-carbonitrile]	7.66
N#Cc1cncc2c1O[C@H]1C[C@@H]2N(C(=O)C23CCC(CC2)C3)C1 [Compound 1-6, (2S,5S)-4-(bicyclo[2.2.1]heptane-1-carbonyl)-2,3,4,5-tetrahydro-2,5-methanopyrido[3,4-f][1,4]oxazepine-9-carbonitrile]	7.96
N#Cc1cncc2c1O[C@H]1C[C@@H]2N(C(=O)C23CCC(F)(CC2)C3)C1 [Compound 1-7, (2S,5S)-4-(4-fluorobicyclo[2.2.1]heptane-1-carbonyl)-2,3,4,5-tetrahydro-2,5-methanopyrido[3,4-f][1,4]oxazepine-9-carbonitrile]	7.74
CC(C)(C(=O)N1C[C@@H]2C[C@H]1c1cncc(C#N)c1O2)C1CC1 [Compound 1-8, (2S,5S)-4-(2-cyclopropyl-2-methylpropanoyl)-2,3,4,5-tetrahydro-2,5-methanopyrido[3,4-f][1,4]oxazepine-9-carbonitrile]	7.54

Next, values leading:

pIC50	Compound
7.21	CCC(C)(C#N)C(=O)N1C[C@@H]2C[C@H]1c1cncc(C#N)c1S2 (single isomer, unassigned) [Compound 4-9, (2S,5S)-4-(2-(R or S)-cyano-2-methylbutanoyl)-2,3,4,5-tetrahydro-2,5-methanopyrido[3,4-f][1,4]thiazepine-9-carbonitrile]
7.37	CCC(C)(C#N)C(=O)N1C[C@@H]2C[C@H]1c1cncc(C#N)c1S2 (single isomer, unassigned) [Compound 4-10, (2S,5S)-4-(2-(R or S)-cyano-2-methylbutanoyl)-2,3,4,5-tetrahydro-2,5-methanopyrido[3,4-f][1,4]thiazepine-9-carbonitrile]
6.36	C[C@@H]1C2CN(C(=O)C(C)(C)C(F)F)[C@H]1c1cncc(C#N)c1O2 (single isomer, unassigned) [Compound 5-3]
6.78	C[C@@H]1C2CN(C(=O)C34CCC(C(F)(F)F)(CC3)C4)[C@H]1c1cncc(C#N)c1O2 (single isomer, unassigned) [Compound 5-4]
5.87	CC(C)(C(=O)N1C[C@H]2Cc3c(C#N)cncc3[C@@H]1C2)C(F)F (single isomer, unassigned) [Compound 5-5]
6.91	N#Cc1cncc2c1C[C@H]1C[C@@H]2N(C(=O)C23CCC(C(F)(F)F)(CC2)C3)C1 (single isomer, unassigned) [Compound 5-6]
